Common to all, as to format: functional, cell-based
Test [1] deals with LoVo. The experiment in a line: Cytotoxicity against human LoVo cells at 2 ug/ml.
The subject of test [2] is KB. Briefly: Cytotoxicity against human KB cells at 2 ug/ml.
Test [3] relates to L1210. Briefly: Cytotoxicity against mouse L1210 cells by agar disk diffusion assay.

Each structure is given as a SMILES string. The source made the active and inactive calls. The rule behind the calls is not given here.

As for `CC(C)[C@@H]1NC(=O)[C@H]2N=C(O[C@@H]2C)[C@H](C(C)C)NC(=O)[C@H]2N=C(O[C@@H]2C)[C@H](C(C)C)NC(=O)[C@H]2N=C1O[C@@H]2C`, the outcome in test [1] and in test [2] was Active. The result in test [3] was inactive.

Source of the values: ChEMBL document CHEMBL1159002, “Westiellamide, a bistratamide-related cyclic peptide from the blue-green alga Westiellopsis prolifica” (J Nat Prod, 1992).
